Assay results taken from PubChem BioAssay (NCI).
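Five compound concentrations were applied to cells in 96-well plates for 48 hours; endpoints were derived by simple linear interpolation of the resulting dose-response curve. The concentration for full growth arrest is given as TGI.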

How the values were obtained:
Assay in all cases: DTP human tumour cell line panel, 48 h
[1] = tested on: NCI-H226 lung
[2] = tested on: NCI/ADR-RES ovarian
[3] = tested on: SN12C renal
[4] = tested on: KM12 colon
[5] = tested on: HCT-15 colon
[6] = tested on: OVCAR-3 ovarian
[7] = tested on: M14 melanoma
[8] = tested on: MOLT-4 leukemia
[9] = tested on: SNB-19 CNS
[10] = tested on: MALME-3M melanoma
[11] = tested on: SK-MEL-28 melanoma
[12] = tested on: TK-10 renal
[13] = tested on: A549 NSCLC
[14] = tested on: RXF 393 renal
[15] = tested on: OVCAR-5 ovarian
[16] = tested on: NCI-H460 lung
[17] = tested on: SK-MEL-5 melanoma
[18] = tested on: 786-0 renal
[19] = tested on: U251 CNS
[20] = tested on: A498 renal
[21] = tested on: OVCAR-4 ovarian
[22] = tested on: SW-620 colon
[23] = tested on: SNB-75 CNS
[24] = tested on: CCRF-CEM leukemia
[25] = tested on: HOP-92 NSCLC
[26] = tested on: HS 578T breast
[27] = tested on: K-562 leukemia
[28] = tested on: NCI-H522 lung
[29] = tested on: OVCAR-8 ovarian
[30] = tested on: DU-145 prostate
[31] = tested on: HL-60(TB) leukemia
[32] = tested on: SF-295 CNS
[33] = tested on: UACC-62 melanoma
[34] = tested on: MDA-N
[35] = tested on: SK-MEL-2 melanoma
[36] = tested on: UO-31 renal
[37] = tested on: IGROV1 ovarian
[38] = tested on: NCI-H23 lung
[39] = tested on: MDA-MB-231 breast
[40] = tested on: HT29 colon
[41] = tested on: ACHN renal
[42] = tested on: UACC-257 melanoma
[43] = tested on: MCF7 breast
[44] = tested on: HOP-62 NSCLC
[45] = tested on: COLO 205 colon
[46] = tested on: CAKI-1 renal
[47] = tested on: SF-539 CNS
[48] = tested on: HCT-116 colon
[49] = tested on: HCC-2998 colon
[50] = tested on: EKVX NSCLC
[51] = tested on: RPMI-8226 leukemia
[52] = tested on: T-47D breast
[53] = tested on: BT-549 breast
[54] = tested on: SR leukemia
[55] = tested on: MDA-MB-435
[56] = tested on: LOX IMVI melanoma
[57] = tested on: SK-OV-3 ovarian
[58] = tested on: PC-3 prostate
[59] = tested on: SF-268 CNS

Measured: TGI

COc1cc2c(NCCCCCO)ncnc2c(OC)c1OC
> 100 µM: [1] | [2] | [3] | [4] | [5] | [6] | [7] | [8] | [9] | [10] | [11] | [12] | [13] | [14] | [15] | [16] | [17] | [18] | [19] | [20] | [21] | [22] | [23] | [24] | [25] | [26] | [27] | [28] | [29] | [30] | [31] | [32] | [33] | [34] | [35] | [36] | [37] | [38] | [39] | [40] | [41] | [42] | [43] | [44] | [45] | [46] | [47] | [48] | [49] | [50] | [51] | [52] | [53] | [54] | [55] | [56] | [57] | [58] | [59]
